Values quoted from earlier work in US7183417B2, “Simple stereocontrolled synthesis of salinosporamide A” (priority 2004, dated 2007).

Tests used:
many tumor cell lines = conditions: read-out: in vitro cytotoxic activity IC50
proteasome = conditions: qualitative statement from the literature

C[C@@]12OC(=O)[C@]1([C@@H](O)[C@@H]1C=CCCC1)NC(=O)[C@@H]2CCCl [Salinosporamide A]
IC50 (many tumor cell lines): ≤ 0.01 µM | proteasome inhibition (in words) (proteasome): even more effective proteasome inhibitor than omuralide

CC(C)[C@H](O)[C@@]12NC(=O)[C@H](C)[C@@H]1OC2=O [omuralide, reference compound]
proteasome inhibition (in words) (proteasome): potent inhibitor of proteasome function
